Results as given in patent US4395404A, “Synthetic thymosin β3 and β4 analogues” (George Washington University, priority 1982, dated 1983).
Where no end group is shown, it is not given here.

Legend:
[1] = tested on: Peritoneal exudate cells (PEC) from guinea pig; assay: Macrophage Migration Inhibitory Factor (MIF) assay, nonspecific inhibition of macrophage migration; type: cell-based, Hartley strain guinea pigs; conditions: less than 20% considered insignificant
Method: The standardized Macrophage Migration Inhibitory Factor (MIF) assay for natural thymosin β4, synthetic thymosin β4, compounds of formula XVI, (designated C12 β3), formula VI (designated C8 β4), formula IV (designated C10 β4), and formula VIII (designated C6 β4) was performed following the method of Thurman, et al., Lymphokines and Thymic Hormones: Their Potential Utilization in Cancer Therapeutics, ed. by Goldstein and Chirigos, Raven Press, New York, pp 145-157 (1981). Peritoneal exudate cells (PEC) from guinea pig were prepared in Hartley strain guinea pigs by injecting 20-30 ml of sterile mineral oil 3-5 days prior to the assay. On the day of the assay, the guinea pigs were anesthetized and injected i.p. with 50 ml of RPMI-1640. Following abdominal massage, the peritoneum was opened with a one inch incision in the umbilical region and the peritoneal fluids withdrawn. The peritoneal fluids were centrifuged at 200×g for 10 min and the pelleted cells resuspended in a small volume of RPMI for transfer to clean tubes. Following three more washes, the cells were resuspended, counted and adjusted to 45×10^6/ml for use. In some experiments mouse PEC were used in place of guinea pig PEC. The mouse PEC were induced in BALB/c normal or nude mice by injecting 1 ml of mineral oil i.p. 3 days prior obtaining the cells by washing the peritoneum with 5 ml of RPMI 1640. In some experiments macrophage-like cell lines, WEHI-3 and FC-1, were used in place of PEC. The WEHI-3 cells migrate and have been reported to respond to migration inhibitory factor (MIF). Likewise, the FC-1 cells are also migratory and respond to MIF. […] The percent nonspecific inhibition (PNSI) was calculated as: [formula] […] Percent nonspecific inhibition of migration of less than 20% was also considered insignificant. The date from these experiments are compiled in Table 3.

[2] = tested on: TdT activity in thymocytes; assay: In vivo effect on TdT activity in thymocytes of hydrocortisone acetate (HCA) treated mice; set-up: species or system C57B1/6J mice; conditions: for TdT Specific Activity: daily for 11 days after 1.25 mg HCA at day 0, HCA-saline 6.4, normal 8.9; for TdT % Increase over HCA-saline: daily for 11 days after HCA
Method: The in vivo effect of thymosin fractions, i.e. thymosin β3 (designated HCA-thymosin β3), thymosin β4 (designated HCA-thymosin β4), thymosin fraction 5 (designated HCA-thymosin fr 5), compound of formula VI (designated HCA-synthetic C8 β4) and compound of formula XVI (designated HCA-synthetic C12 β3, on TdT activity in thymocytes of hydrocortisone acetate (HCA) treated C57B1/6J mice was assayed and determined according to the method of Hu, et al., 38, 1079 (1979).
For TdT activity determination [(following the Hu et al method (supra)], a 1.25 mg HCA injection per animal was carried out at day zero (0). Each injection was followed by daily treatment of the animal with the thymosin fractions (supra) or controls, i.e. no HCA and HCA-saline, for eleven (11) consecutive days. The increase in TdT specific activity (nmoles of dGTP incorporated per 10^8 thymocytes per hour) over that of HCA-saline treated animals was determined, the data compiled in columns 1-4 of Table 2.

Splenic lymphocytes = assay: In vivo restoration of splenic mitogenic responses in HCA suppressed mice (tritiated thymidine incorporation); set-up: species or system C57B1/6J mice; conditions: for Mitogens PHA-P (cpm): HCA-saline 12,000, normal 30,000; for Mitogens Con A (cpm): HCA-saline 86,000, normal 210,000
Method: The in vivo effect of thymosin fractions (supra) on restoration of splenic mitogenic responses in HCA suppressed C57B1/6J mice was assayed and determined by the following method.
Splenic lymphocytes were removed sterilly, placed in plastic petri dishes containing RPMI 1640 (with 25 mM HEPES buffer, 100 μ/ml penicillin, 100 μg/ml streptomycin and 2mM L-glutamine) and a 64-mesh stainless steel wire screen. Single cell suspensions were obtained by further passage through a 25 GA needle. The cells were washed twice, counted using a Coulter Counter Model A and suspended to give a concentration of 6×10^6 leukocytes/ml. Cultures were prepared in flat bottom 96 well microtiter plates by placing 0.10 ml of the cell suspension into each well plus 0.05 ml 20% heat inactivated fetal calf serum (FCS) (resulting in 6×10^5 cells/well in 5% FCS final). Control cultures received 0.05 ml of RPMI 1640, and the stimulated cultures received 0.025 ml of RPMI 1640 containing various concentrations of thymosin and 0.025 ml of various concentrations of PHA-P (Difco, Detroit, Michigan), Con-A (Calbiochem, Oxnard, California), PWM (GIBCO, Grand Island, New York) or E. coli LPS (Difco, Detroit, Michigan) all made up in RPMI 1640. Cultures were pulsed by adding 1 uCi tritiated thymidine, 1.9 Ci/mM (Schwartz/Mann,Orangeburg, New Jersey), in 0.02 ml of RPMI 1640 8 hours before culture termination. Cultures were harvested utilizing a Multiple-Automated Sample Harvester (Microbiological Associates, Bethesda, Maryland). The resulting filter spots were dried and placed in glass liquid scintillation mini-vials to which was added 1 ml of scintillation cocktail. The vials were stoppered and the tritiated thymidine incorporation analyzed by scintillation spectrophotometry on an LKB liquid scintillation counter to provide Con A (cpm) and PHA-P (cpm). Processing of the data and necessary statistical tests were performed on a Wang 700 C Advanced Programming Calculator (Wang Labs, Tewksbury, Massachusetts) and are compiled in columns 1-2 and 5-6 of Table 2.

T-cell populations = conditions: partially purified; Low and Goldstein 1978; cited from earlier work
[3] = tested on: TdT positive cells in the thymus; conditions: following steroid induced immunosuppression; Low et al. 1981; cited from earlier work
macrophages = conditions: Thurman et al. 1981; cited from earlier work

Row | Substance | PNSI (percent nonspecific inhibition of macrophage migration) ([1]; 0.0005 nmoles/ml) [%] | PNSI (percent nonspecific inhibition of macrophage migration) ([1]; 0.005 nmoles/ml) [%] | PNSI (percent nonspecific inhibition of macrophage migration) ([1]; 0.05 nmoles/ml) [%] | PNSI (percent nonspecific inhibition of macrophage migration) ([1]; 0.5 nmoles/ml) [%] | TdT Specific Activity ([2]; 10 μg/injection) | TdT % Increase over HCA-saline ([2]; 10 μg/injection) [%] | Mitogens PHA-P (cpm) (Splenic lymphocytes; 10 μg/injection) | Mitogens Con A (cpm) (Splenic lymphocytes; 10 μg/injection) | TdT Specific Activity ([2]; 1 μg/injection) | TdT % Increase over HCA-saline ([2]; 1 μg/injection) [%] | Mitogens PHA-P (cpm) (Splenic lymphocytes; 1 μg/injection) | Mitogens Con A (cpm) (Splenic lymphocytes; 1 μg/injection) | Induction of TdT positive cells in T-cell populations (T-cell populations) | Reappearance of TdT positive cells in the thymus [3] | Migration of macrophages (macrophages)
1 | IEQEKQQAGES [C10 β4, L-Isoleucyl-L-glutamyl-L-glutaminyl-L-glutamyl-L-lysyl-L-glutaminyl-L-glutaminyl-L-alanyl-glycyl-L-glutamyl-L-serine] | -5.3 | 10.7 | 18.8 | 21.6 |  |  |  |  |  |  |  |  |  |  | 
2 | KQAGES [C6 β4, L-Lysyl-L-glutaminyl-L-alanyl-glycyl-L-glutamyl-L-serine] | 3.1 | -5.1 | 15.2 | 18.3 |  |  |  |  |  |  |  |  |  |  | 
3 | QAGESDEITAKT [C12 β3, L-Glutaminyl-L-alanyl-glycyl-L-glutamyl-L-seryl-L-aspartyl-L-glutamyl-L-isoleucyl-L-threonyl-L-alanyl-L-lysyl-L-threonine] | 23.5 | 24.7 | 29.7 | 30.2 | 8.2 nmoles of dGTP incorporated pe | 28 | 65,000 cpm | 110,000 cpm |  |  |  |  |  |  | 
4 | QEKQAGES [C8 β4, L-glutaminyl-L-glutamyl-L-lysyl-L-glutaminyl-L-alanyl-glycyl-L-glutamyl-L-serine] | 5.5 | 27.0 | 25.4 | 24.1 | 7.6 nmoles of dGTP incorporated pe | 19 | 11,000 cpm | 140,000 cpm |  |  |  |  |  |  | 
5 | Synthetic thymosin β4: synthetic thymosin β4, tested beside natural thymosin β4 in the MIF assay (SDKPDMAEIEKFDKSKLKKTETQEKNPLPSKETIEQEKQAGES; Thymosin beta-4 synthetic; UniProt P62328 2-44, looked up) [reference compound] |  | 25.0 | 25.9 | 30.3 |  |  |  |  |  |  |  |  |  |  | 
6 | thymosin β3 [HCA--Thymosin β3, reference compound] |  |  |  |  |  |  |  |  | 9.7 nmoles of dGTP incorporated pe | 52 | 27,000 cpm | 120,000 cpm | induce TdT positive cells | accelerate the reappearance of TdT positive cells in the thymus | inhibit the migration of macrophages
7 | thymosin β4 [Natural thymosin β4, reference compound] |  | 23.1 | 29.2 | 37.6 |  |  |  |  | 8.8 nmoles of dGTP incorporated pe | 38 | 10,000 cpm | 125,000 cpm | induce TdT positive cells | accelerate the reappearance of TdT positive cells in the thymus | inhibit the migration of macrophages
